The assay has as its target LRRK2 G2019S enzyme (Homo sapiens (Human), UniProt Q5S007, G2019S). Briefly: LRRK2 G2019S TR-FRET biochemical kinase assay (LRRKtide substrate). The conditions noted are these: 5 nM LRRK2, 134 μM ATP, 60 minute reaction, 23° C. In outline:
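TR-FRET phospho-LRRKtide readout (2 nM antibody, 10 mM EDTA, 60 min) after a 60 min, 23 °C kinase reaction. The reaction used 134 μM ATP and 5 nM enzyme in pH 7.5 Tris/MgCl2/EGTA/DTT buffer, with compound and enzyme-substrate mix preincubated for 20 min beforehand.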
On the technique in general: Time-resolved FRET reads energy transfer from a long-lived donor to a nearby acceptor.

Chain of LRRK2 G2019S enzyme (Q5S007 whole entry G2019S): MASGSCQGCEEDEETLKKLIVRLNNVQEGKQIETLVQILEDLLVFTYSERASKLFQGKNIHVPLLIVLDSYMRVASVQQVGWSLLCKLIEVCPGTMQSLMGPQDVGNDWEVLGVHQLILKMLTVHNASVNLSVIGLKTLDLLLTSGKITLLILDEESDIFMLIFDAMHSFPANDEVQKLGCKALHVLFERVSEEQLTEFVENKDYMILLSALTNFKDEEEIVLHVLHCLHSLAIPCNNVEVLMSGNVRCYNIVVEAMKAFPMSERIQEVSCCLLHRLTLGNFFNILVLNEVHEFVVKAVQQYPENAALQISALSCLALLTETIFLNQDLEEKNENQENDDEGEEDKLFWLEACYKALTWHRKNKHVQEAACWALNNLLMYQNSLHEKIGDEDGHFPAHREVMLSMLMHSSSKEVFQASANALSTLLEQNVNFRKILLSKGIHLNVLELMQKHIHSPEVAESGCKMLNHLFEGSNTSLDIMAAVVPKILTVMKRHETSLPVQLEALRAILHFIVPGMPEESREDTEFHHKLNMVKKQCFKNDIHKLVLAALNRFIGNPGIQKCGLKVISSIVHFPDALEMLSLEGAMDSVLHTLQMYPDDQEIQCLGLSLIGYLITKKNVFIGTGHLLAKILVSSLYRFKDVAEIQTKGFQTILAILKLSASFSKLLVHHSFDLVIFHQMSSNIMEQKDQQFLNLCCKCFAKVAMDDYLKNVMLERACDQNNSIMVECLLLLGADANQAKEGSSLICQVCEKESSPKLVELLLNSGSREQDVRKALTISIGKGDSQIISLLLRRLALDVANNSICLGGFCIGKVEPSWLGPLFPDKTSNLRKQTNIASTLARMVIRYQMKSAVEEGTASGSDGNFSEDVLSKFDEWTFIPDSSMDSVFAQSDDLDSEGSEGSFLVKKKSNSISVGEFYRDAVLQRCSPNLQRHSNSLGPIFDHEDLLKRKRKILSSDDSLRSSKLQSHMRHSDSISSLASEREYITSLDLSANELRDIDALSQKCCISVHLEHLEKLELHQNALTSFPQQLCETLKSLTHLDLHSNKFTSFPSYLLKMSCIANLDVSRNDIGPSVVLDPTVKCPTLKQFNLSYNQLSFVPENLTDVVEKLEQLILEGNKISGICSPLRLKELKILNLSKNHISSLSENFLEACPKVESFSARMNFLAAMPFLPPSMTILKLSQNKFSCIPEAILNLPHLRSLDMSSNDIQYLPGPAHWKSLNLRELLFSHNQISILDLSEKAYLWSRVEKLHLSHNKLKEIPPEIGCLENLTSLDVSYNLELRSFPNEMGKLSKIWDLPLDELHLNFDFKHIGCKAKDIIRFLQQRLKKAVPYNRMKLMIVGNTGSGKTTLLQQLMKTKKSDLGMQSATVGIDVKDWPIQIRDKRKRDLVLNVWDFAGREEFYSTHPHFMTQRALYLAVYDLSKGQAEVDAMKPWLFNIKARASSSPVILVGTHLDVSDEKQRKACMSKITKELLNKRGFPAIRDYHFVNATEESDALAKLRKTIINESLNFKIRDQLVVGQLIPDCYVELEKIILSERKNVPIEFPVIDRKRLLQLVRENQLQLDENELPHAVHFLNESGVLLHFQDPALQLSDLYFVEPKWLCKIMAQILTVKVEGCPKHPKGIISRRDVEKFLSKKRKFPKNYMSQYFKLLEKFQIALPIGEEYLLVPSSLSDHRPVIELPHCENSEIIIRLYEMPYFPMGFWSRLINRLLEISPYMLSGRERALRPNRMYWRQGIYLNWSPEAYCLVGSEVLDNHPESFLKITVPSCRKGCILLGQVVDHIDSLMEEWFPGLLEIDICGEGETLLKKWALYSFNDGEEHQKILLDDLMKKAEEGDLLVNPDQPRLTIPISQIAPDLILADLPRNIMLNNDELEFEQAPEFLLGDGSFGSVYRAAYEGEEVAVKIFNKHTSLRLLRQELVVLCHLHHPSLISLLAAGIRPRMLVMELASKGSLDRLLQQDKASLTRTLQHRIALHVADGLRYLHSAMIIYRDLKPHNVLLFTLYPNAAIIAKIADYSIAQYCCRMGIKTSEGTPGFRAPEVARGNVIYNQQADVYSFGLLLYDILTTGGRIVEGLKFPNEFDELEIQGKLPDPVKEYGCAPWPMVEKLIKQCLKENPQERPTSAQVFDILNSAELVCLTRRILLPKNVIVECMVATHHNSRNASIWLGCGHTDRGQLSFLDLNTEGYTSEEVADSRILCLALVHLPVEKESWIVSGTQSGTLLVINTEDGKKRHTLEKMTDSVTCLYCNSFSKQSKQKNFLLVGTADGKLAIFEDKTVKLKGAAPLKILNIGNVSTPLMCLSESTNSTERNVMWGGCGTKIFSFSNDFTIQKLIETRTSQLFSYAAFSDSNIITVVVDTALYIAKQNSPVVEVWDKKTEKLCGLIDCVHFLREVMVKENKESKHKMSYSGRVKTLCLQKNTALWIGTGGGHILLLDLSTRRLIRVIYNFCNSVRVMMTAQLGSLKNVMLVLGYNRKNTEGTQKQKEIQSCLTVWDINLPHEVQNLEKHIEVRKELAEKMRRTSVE

The term IC50 denotes the concentration that gives 50% inhibition. A high value points to weaker potency. `Cc1c(Nc2nc(C3CC3)c3c(C#N)c[nH]c3n2)cnn1C(F)F` [Compound C-39] came in with an IC50 (Table C-2) of under 50 nM.
On the same count and under the same terms, the result for `Cc1nn(C(F)F)cc1Nc1nc(C2CC2)c2c(C#N)c[nH]c2n1` [Compound C-40] reads under 50 nM; that for `Cc1nn(C(C)(C)C#N)cc1Nc1nc(C2CC2)c2c(C3CC3)c[nH]c2n1` [Compound C-41], under 50 nM.
Regarding `Cc1nn(C(C)(C)C#N)cc1Nc1nc(C2CC2)c2c(C(F)(F)F)c[nH]c2n1` [Compound C-42], the concentration for half-maximal inhibition (IC50) (Table C-2) is under 50 nM.
The same measure, in the same setting: the result for `Cc1c(Nc2nc(C3CC3)c3c(C#N)c[nH]c3n2)cnn1C1CC2CC2C1` (stereo not drawn) [Compound C-43] reads under 50 nM.
`Cc1nn(C2CC3CC3C2)cc1Nc1nc(C2CC2)c2c(C#N)c[nH]c2n1` (stereo not drawn) [Compound C-44]: the IC50 (Table C-2) is under 50 nM.
On the same count and under the same terms, the result for `Cc1c(Nc2nc(C3CC3)c3nc[nH]c3n2)cnn1C1CC2CC2C1` (stereo not drawn) [Compound C-45] reads under 50 nM; that for `Cc1nn(C2CC3CC3C2)cc1Nc1nc(C2CC2)c2nc[nH]c2n1` (stereo not drawn) [Compound C-46], under 50 nM; that for `Cc1c(Nc2nc(C3CC3)c3c(C#N)c[nH]c3n2)cnn1CCOC(F)F` [Compound C-47], under 50 nM.
Same read-out and setting: the result for `Cc1c(Nc2nc(C3CC3)c3nc[nH]c3n2)cnn1CCOC(F)F` [Compound C-48] reads under 50 nM; that for `Cc1c(Nc2nc(C3CC3)c3nc[nH]c3n2)cnn1C1CC1` [Compound C-49], under 50 nM; that for `Cc1nn(C2CC2)cc1Nc1nc(C2CC2)c2nc[nH]c2n1` [Compound C-50], under 50 nM.
On the same count and under the same terms, the result for `Cc1nn(CC2CC2)cc1Nc1nc(C2CC2)c2nc[nH]c2n1` [Compound C-52] reads under 50 nM; that for `Cc1c(Nc2cc(C3CC3)c3c(C#N)c[nH]c3n2)cnn1C1CC1` [Compound C-53], under 50 nM.
Consider `Cc1nn(C2CC2)cc1Nc1cc(C2CC2)c2c(C#N)c[nH]c2n1` [Compound C-54], for which the 50% inhibitory concentration (IC50) (Table C-2) is under 50 nM.
On the same count and under the same terms, the figure for `Cc1nn(C(CF)CF)cc1Nc1nc(C2CC2)c2c(Cl)c[nH]c2n1` [Compound C-55] is under 50 nM.
`CNc1nc(Nc2cn(CC3(CC#N)CC3)nc2C)ncc1C(F)(F)F` [Compound D-1, 2-(1-((3-methyl-4-((4-(methylamino)-5-(trifluoromethyl)pyrimidin-2-yl)amino)-1H-pyrazol-1-yl)methyl)cyclopropyl)acetonitrile]: the IC50 (Table D-4) is over 60 nM.
Regarding `CNc1nc(Nc2cnn(C3CCn4ccnc43)c2C)ncc1C(F)(F)F` [Compound D-2, N2-[1-(6,7-dihydro-5H-pyrrolo[1,2-a]imidazol-7-yl)-5-methyl-pyrazol-4-yl]-N4-methyl-5-(trifluoromethyl)pyrimidine-2,4-diamine], the 50% inhibitory concentration (IC50) (Table D-4) was under 30 nM.
As for `CNc1nc(Nc2cn(CC3(Cn4cncn4)CC3)nc2C)ncc1C(F)(F)F` [Compound D-5, N2-(1-((1-((1H-1,2,4-triazol-1-yl)methyl)cyclopropyl)methyl)-3-methyl-1H-pyrazol-4-yl)-N4-methyl-5-(trifluoromethyl)pyrimidine-2,4-diamine], the IC50 (Table D-4) is over 60 nM.
Still for that read-out and setting: the figure for `CNc1nc(Nc2cnn(CC3(Cn4cncn4)CC3)c2C)ncc1C(F)(F)F` [Compound D-6, N2-(1-((1-((1H-1,2,4-triazol-1-yl)methyl)cyclopropyl)methyl)-5-methyl-1H-pyrazol-4-yl)-N4-methyl-5-(trifluoromethyl)pyrimidine-2,4-diamine] is under 30 nM.
On the same count and under the same terms, the figure for `CNc1nc(Nc2cnn(C3CCc4nnc(C)n4C3)c2C)ncc1C(F)(F)F` [Compound D-7, N4-methyl-N2-[5-methyl-1-(3-methyl-5,6,7,8-tetrahydro-[1,2,4]triazolo[4,3-a]pyridin-6-yl)pyrazol-4-yl]-5-(trifluoromethyl)pyrimidine-2,4-diamine] is under 30 nM.
Still for that read-out and setting: the figure for `CNc1nc(Nc2cn(C3CCc4nnc(C)n4C3)nc2C)ncc1C(F)(F)F` [Compound D-8, N4-methyl-N2-[3-methyl-1-(3-methyl-5,6,7,8-tetrahydro-[1,2,4]triazolo[4,3-a]pyridin-6-yl)pyrazol-4-yl]-5-(trifluoromethyl)pyrimidine-2,4-diamine] is over 60 nM; for `CNc1nc(Nc2cnn(CCOC(F)F)c2C)ncc1C(F)(F)F` [Compound D-9, N2-[1-[2-(difluoromethoxy)ethyl]-5-methyl-pyrazol-4-yl]-N4-methyl-5-(trifluoromethyl)pyrimidine-2,4-diamine] it is under 30 nM.
`CNc1nc(Nc2cn(CCOC(F)F)nc2C)ncc1C(F)(F)F` [Compound D-10, N2-[1-[2-(difluoromethoxy)ethyl]-3-methyl-pyrazol-4-yl]-N4-methyl-5-(trifluoromethyl)pyrimidine-2,4-diamine] displayed an IC50 (Table D-4) of 30 to 60 nM.
Still for that read-out and setting: the result for `CNc1nc(Nc2cnn(CCOC(F)F)c2Cl)ncc1C(F)(F)F` [Compound D-11, N2-[5-chloro-1-[2-(difluoromethoxy)ethyl]pyrazol-4-yl]-N4-methyl-5-(trifluoromethyl)pyrimidine-2,4-diamine] reads under 30 nM; that for `CNc1nc(Nc2cnn(CC3(COC)CC3)c2Cl)ncc1C(F)(F)F` [Compound D-12, N2-[5-chloro-1-[[1-(methoxymethyl)cyclopropyl]methyl]pyrazol-4-yl]-N4-methyl-5-(trifluoromethyl)pyrimidine-2,4-diamine], under 30 nM.
`CNc1nc(Nc2cn(C(F)(F)C#N)nc2C)ncc1C(F)(F)F` [Compound D-13, 2,2-difluoro-2-[3-methyl-4-[[4-(methylamino)-5-(trifluoromethyl)pyrimidin-2-yl]amino]pyrazol-1-yl]acetonitrile] had an IC50 (Table D-4) of under 30 nM.
Still for that read-out and setting: the figure for `CNc1nc(Nc2cn(C(F)(F)C(N)=O)nc2C)ncc1C(F)(F)F` [Compound D-14, 2,2-difluoro-2-[3-methyl-4-[[4-(methylamino)-5-(trifluoromethyl)pyrimidin-2-yl]amino]pyrazol-1-yl]acetamide] is under 30 nM.
The same measure, in the same setting: the result for `CCNc1nc(Nc2cnn(CCOC(F)F)c2C)ncc1C(F)(F)F` [Compound D-15, N2-[1-[2-(difluoromethoxy)ethyl]-5-methyl-pyrazol-4-yl]-N4-ethyl-5-(trifluoromethyl)pyrimidine-2,4-diamine] reads under 30 nM; that for `CCNc1nc(Nc2cn(CCOC(F)F)nc2C)ncc1C(F)(F)F` [Compound D-16, N2-[1-[2-(difluoromethoxy)ethyl]-3-methyl-pyrazol-4-yl]-N4-ethyl-5-(trifluoromethyl)pyrimidine-2,4-diamine], under 30 nM.
Same read-out and setting: the result for `CNc1nc(Nc2cnn(CC(C)OC(F)F)c2C)ncc1C(F)(F)F` [Compound D-17] reads under 30 nM.
Compound `CNc1nc(Nc2cn(CC(C)OC(F)F)nc2C)ncc1C(F)(F)F` [Compound D-18] had an IC50 (Table D-4) of over 60 nM.
`CNc1nc(Nc2cnn(C[C@@H](C)OC(F)F)c2C)ncc1C(F)(F)F` [Compound D-19, N2-[1-[(2R)-2-(difluoromethoxy)propyl]-5-methyl-pyrazol-4-yl]-N4-methyl-5-(trifluoromethyl)pyrimidine-2,4-diamine] displayed an IC50 (Table D-4) of under 30 nM.
The same measure, in the same setting: the result for `CNc1nc(Nc2cn(C[C@@H](C)OC(F)F)nc2C)ncc1C(F)(F)F` [Compound D-20, N2-[1-[(2R)-2-(difluoromethoxy)propyl]-3-methyl-pyrazol-4-yl]-N4-methyl-5-(trifluoromethyl)pyrimidine-2,4-diamine] reads over 60 nM.
On the same count and under the same terms, the result for `CNc1nc(Nc2cn(C(C)COC(F)F)nc2C)ncc1C(F)(F)F` [Compound D-21, N2-[1-[2-(difluoromethoxy)-1-methyl-ethyl]-3-methyl-pyrazol-4-yl]-N4-methyl-5-(trifluoromethyl)pyrimidine-2,4-diamine] reads 30 to 60 nM; that for `CNc1nc(Nc2cnn([C@H]3C[C@H](OC(F)F)C3)c2C)ncc1C(F)(F)F` [Compound D-25, trans-N2-[1-[3-(difluoromethoxy)cyclobutyl]-5-methyl-pyrazol-4-yl]-N4-methyl-5-(trifluoromethyl)pyrimidine-2,4-diamine], under 30 nM; that for `CNc1nc(Nc2cn([C@H]3C[C@H](OC(F)F)C3)nc2C)ncc1C(F)(F)F` [Compound D-26, trans-N2-[1-[3-(difluoromethoxy)cyclobutyl]-3-methyl-pyrazol-4-yl]-N4-methyl-5-(trifluoromethyl)pyrimidine-2,4-diamine], under 30 nM.
Turning to `CNc1nc(Nc2cn([C@H]3C[C@@H](n4cccn4)C3)nc2C)ncc1C(F)(F)F` [Compound D-27, cis-N4-methyl-N2-[3-methyl-1-(3-pyrazol-1-ylcyclobutyl)pyrazol-4-yl]-5-(trifluoromethyl)pyrimidine-2,4-diamine], the 50% inhibitory concentration (IC50) (Table D-4) was under 30 nM.
For the compound `CNc1nc(Nc2cn([C@H]3C[C@@H](S(C)(=O)=O)C3)nc2C)ncc1C(F)(F)F` [Compound D-28, cis-N4-methyl-N2-[3-methyl-1-(3-methylsulfonylcyclobutyl)pyrazol-4-yl]-5-(trifluoromethyl)pyrimidine-2,4-diamine], the IC50 (Table D-4) is under 30 nM.
On the same count and under the same terms, the figure for `CNc1nc(Nc2cnn([C@H]3C[C@H](CC#N)C3)c2C)ncc1C(F)(F)F` [Compound D-29, trans-2-[3-[4-[[5-(difluoromethyl-fluoranyl)-4-(methylamino)pyrimidin-2-yl]amino]-5-methyl-pyrazol-1-yl]cyclobutyl]acetonitrile] is under 30 nM.
On the same count and under the same terms, the figure for `CNc1nc(Nc2cn([C@H]3C[C@H](CC#N)C3)nc2C)ncc1C(F)(F)F` [Compound D-30, trans-2-[3-[4-[[5-(difluoromethyl-fluoranyl)-4-(methylamino)pyrimidin-2-yl]amino]-3-methyl-pyrazol-1-yl]cyclobutyl]acetonitrile] is under 30 nM.
For `CNc1nc(Nc2cnn([C@H]3C[C@H](COC(F)F)C3)c2C)ncc1C(F)(F)F` [Compound D-31, trans-N2-[1-[3-(difluoromethoxymethyl)cyclobutyl]-5-methyl-pyrazol-4-yl]-5-(difluoromethyl-fluoranyl)-N4-methyl-pyrimidine-2,4-diamine], the IC50 (Table D-4) is under 30 nM.

Values taken from patent US11214565B2, “Compound, compositions, and methods” (Denali Therapeutics Inc., priority 2015, dated 2022).
